In patent US7482329B2, “Single domain TDF-related compounds and analogs thereof” (Thrasos Therapeutics, priority 2002, dated 2009):
Entries after “also recorded” stand apart in the source; their conditions may differ. Values belong to the molecule of their own block, whether it stands above or below them. Where a SMILES comes first, the peptide text is derived from it.

Experiments:
[1] = tested on: IL-6 in HK2 human transformed kidney proximal tubule cells; test: IL-6 level in HK-2 cell medium after TNF-alpha stimulation (ELISA); assay type: cell-based; details: for effect on level of IL-6 in HK2 cell medium: after TNF-alpha inflammatory stimulation, FIG. 6, FIG. 10
Method: The immortalized PTEC-derived HK-2 (Human Kidney-2) cells (ATCC number CRL-2190) were grown in serum-free keratinocyte medium (GIBCO number 17005-042) supplemented with epidermal growth factor (EGF: 5 ng/mL) and bovine pituitary extract (40 ug/mL) for 48 hours as described previously (Ryan et al (1994) Kidney International 45:48-57). Cells were transferred to 24-well plates at a density of 3×10^5 cells per well. After 24 hours, cells were incubated with fresh medium containing TNF-alpha (5 ng/mL) for 20 hours. Controls received medium alone. Then cells were washed twice with fresh culture medium and further incubated with culture medium alone (medium control, and TNF control wells) or TDF-1 at three different concentrations (40, 200 or 1000 ng/mL) or TDFRP compounds at three different concentrations (4, 20 or 100 uM) for sixty hours. During incubation, cells were kept in a 5% CO2 humid atmosphere at 37° C. At the end of the incubation, the media were removed and stored frozen until assayed. The concentrations of IL-6 and sICAM-in culture supernatants were measured by specific ELISA.
Dilute the capture antibody to the working concentration in PBS, pH 7.4 without carrier protein. Add 61 uL of stock antibody (360 ug/mL) to 10.939 mL of PBS, gently vertex. Immediately coat a 96 well microplate (Immulon 4 HBX) with 100 uL per well of the diluted capture antibody. Seal the plate and incubate it overnight in cold (4° C.). (PBS: 8.1 mM Na2HPO4, 1.5 mM KH2PO4, 137 mM NaCl, 2.7 mM KCl, pH 7.4, 0.2 um filtered). Next day empty the wells and wash the wells three times, each time using 340 uL of wash buffer per well. (wash buffer: PBS, pH 7.4 containing 0.05% Tween-20).
Prepare blocking buffer, 35 mL per plate. To prepare blocking buffer, add 0.35 grams of BSA and 1.75 grams of sucrose to 35 mL of PBS, pH 7.4, and mix the contents gently. Add 300 uL of blocking buffer to each well and incubate the plate for a minimum of 1 hour at room temperature. Empty the wells and wash wells three times, each time using 340 uL of wash buffer per well.
Prepare a 8 point standard curve using 2-fold serial dilutions in reagent diluent. Dilute stock standard, recombinant IL-6, 70 ng/mL to an initial concentration of 2400 ng/mL in reagent diluent. Then further dilute the standard to a working range, 1200, 600, 300, 150, 75, 37.5, 18.75 and 9.375 ng/mL using reagent diluent. (to prepare reagent diluent, add 0.4 grams of BSA to 40 mL of PBS, pH 7.4 and gently vertex). Also dilute 24 uL of each sample medium (from HK-2 cell cultures) with 376 uL of reagent diluent. Add 100 uL of standard or sample per well, seal the plate and incubate it overnight in cold (4° C.).
Next day, empty the wells and wash wells three times, each time using 340 uL of wash buffer per well. […]

Smad1 in HK2 cells = test: Smad1 accumulation in the nucleus of HK2 cells (Ser-Thr signal transduction); assay type: cell-based, human; details: fluorescent labeling of Smad-1, FIG. 8, FIG. 9
From the text: Open column is non-inflammation background level of ICAM-1; Black column is the ICAM-1 level following TNF-alpha inflammatory stimulation. […] In the Ser-Thr signaling pathway, the ligand (TDF-1 or TP2.003) bind to both the type 1 receptor (ALK3) and the type 2 receptor (BMPR2) inducing oligomerization of the receptors. The type 2 receptor under goes phosphorylation and then phosphorylates the type 1 receptor, which then phosphorylates one of Smad 1, 5 or 8 (ref. to as Smad1 below). The phosphorylated Smad1 is then picked up by Smad4 and ferried into the nucleus. Thus, detection of the concentration of Smad1 in the nucleus is diagnostic of induction of signal transduction.
Note that in the right hand column, the phase contrast images of the HK2 cells showing close to confluency; the images on the left show fluorescent labeling of Smad-1 in the nucleus of HK2 cells.

[2] = target: T1, BMPR-2 receptor extra cellular domain (Homo sapiens, UniProt Q13873); test: Radio-ligand receptor binding assay, competition with 125I-labeled TDF-1 for BMPR-2
T1 construct: immobilized BMPR-2 receptor extra cellular domain (ECD)
T1 sequence (Q13873 27-150 limits assumed): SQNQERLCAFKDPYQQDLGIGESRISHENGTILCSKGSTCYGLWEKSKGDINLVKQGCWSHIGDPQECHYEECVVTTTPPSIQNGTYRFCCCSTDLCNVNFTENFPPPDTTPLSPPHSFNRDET
From the text: General protocol: These assays are based on competition between ^125I-labeled TDF-1 (BMP-7 or OP-1) and candidate TDFRP compounds or unlabeled TDF-1 for binding to respective receptors (ALK-3, ALK-6 or BMPR-2). In brief, the procedure involves immobilization of receptor on 96 well Removawell plates, blocking the wells with 3% BSA in PBS and subsequently washing the wells. Increasing concentrations of unlabeled TDF-1 or TDFRP compounds or control (unlabeled TDF-1) prepared in binding buffer are then added. Incubate plate for 1 hour at room temperature, and then add a fixed amount of ^125I-labeled TDF-1 (250,000 to 350,000 cpm) to the wells and further incubate in cold (4° C.) for 20 hours. Aspirate the contents of the wells and wash the wells four times with a wash buffer, and count the receptor bound ^125I-labeled TDF-1 in an auto gamma counter. B. HK-2 Cell Culture and Determination of Cytokine Production

EC50 ([1]; HK2 cells, 5 ng/ml TNF-alpha stimulus, FIG. 6, read-out: ED50, lowering of IL-6 level): ~10 µM
specific binding to BMPR-2 / inhibition of specific binding of labeled TDF-1 to BMPR-2 receptor ([2]; competitive binding, FIG. 4): specifically binds and does
Molecule: CC(C)C[C@H](NC(=O)[C@@H](NC(=O)[C@H](CC(N)=O)NC(=O)[C@H](CO)NC(=O)[C@H](CO)NC(=O)[C@H](CC(=O)O)NC(=O)[C@H](CC(=O)O)NC(=O)[C@H](Cc1ccccc1)NC(=O)[C@H](Cc1ccc(O)cc1)NC(=O)[C@@H](N)CS)C(C)C)C(=O)N[C@@H](CS)C(=O)N[C@@H](CCCCN)C(=O)N[C@@H](CCCCN)C(=O)N[C@@H](Cc1ccc(O)cc1)C(=O)N[C@@H](CCCNC(=N)N)C(=O)N[C@@H](CO)C(=O)O [SEQ ID NO:45, CYFDDSSNVLCKKYRS] (H-CYFDDSSNVLCKKYRS-OH)
effect on level of IL-6 in HK2 cell medium [1]: reduces the level of cellular inflammation marker IL-6; also recorded: lowers the level of IL-6 in a dose dependent manner
Smad1 accumulation in the nucleus / induction of Ser-Thr signal transduction (Smad1 in HK2 cells): induces Ser-Thr signal transduction; also recorded: dose dependent response of Smad1 accumulation in the nucleus

EC50 ([2]; FIG. 3, read-out: ED50, displacing labeled TDF-1 from immobilized BMPR-2 receptor ECD): 0.0063 µM
B1: TDF-1: TDF-1 (BMP-7 or OP-1), bone morphogenetic protein-7; unlabeled control ligand in the binding and cell assays (protein)
chain: STGSKQRSQNRSKTPKNQEALRMANVAENSSSDQRQACKKHELYVSFRDLGWQDWIIAPEGYAAYYCEGECAFPLNSYMNATNHAIVQTLVHFINPETVPKPCCAPTQLNAISVLYFDDSSNVILKKYRNMVVRACGCH
effect on level of IL-6 in HK2 cell medium [1]: lowers the level of IL-6 in a dose dependent manner; also recorded: brings the IL-6 level down below the basal level
Smad1 accumulation in the nucleus / induction of Ser-Thr signal transduction (Smad1 in HK2 cells): induces Ser-Thr signal transduction; also recorded: dose dependent response of Smad1 accumulation in the nucleus
